Results published in patent US12351596B2 (priority 2019, dated 2025).
Entries after “also recorded” stand apart in the source; their conditions may differ.

System: antibodies present in serum samples from melioidosis patients
Assay type: binding, human

Compound | ability to detect antibodies present in serum samples from melioidosis patients | ability to detect the antibodies compared with other antigens
CO[C@H]1[C@@H](OC(C)=O)[C@H](O[C@@H]2[C@@H](O)[C@H](O[C@@H]3[C@H](O)[C@H](C)O[C@@H](O[C@@H]4[C@@H](O)[C@H](OCCCCCN)O[C@H](CO)[C@H]4O)[C@@H]3OC(C)=O)O[C@H](CO)[C@H]2O)O[C@@H](C)[C@H]1OC(C)=O.Cl [tetrasaccharide 8, (5-Amino-1-pentyl) 2,4-di-O-acetyl-6-deoxy-3-O-methyl-α-L-talopyranosyl-(1→3)-β-D-glucopyranosyl-(1→3)-2-O-acetyl-6-deoxy-α-L-talopyranosyl-(1→3)-β-D-glucopyranoside hydrochloride] | exquisite mimics of the whole Bp and Bm LPS OAgs; also recorded: able to detect antibodies present in serum samples from melioidosis patients | –
(5-Amino-1-pentyl) 2-O-acetyl-6-deoxy-3-O-methyl-α-L-talopyranosyl-(1→3)-β-D-glucopyranosyl-(1→3)-2-O-acetyl-6-deoxy-α-L-talopyranosyl-(1→3)-δ-D-glucopyranoside hydrochloride [tetrasaccharide 9] | exquisite mimics of the whole Bp and Bm LPS OAgs; also recorded: able to detect antibodies present in serum samples from melioidosis patients | as effective as tetrasaccharide 8
